Data from patent US20170135378A1, “COMPOSITION AND USE THEREOF” (DUPONT NUTRITION BIOSCIENCES APS, priority 2014, published 2017).

Legend:
[1] = Release testing of betaine leaching from shrimp feed pellets in artificial seawater; format: physicochemical
Description: An aquafeed comprising the composition of the invention (or the composition itself) is placed in a rotating basket and immersed in 500 ml of artificial seawater (547.6 mM NaCl, 56.8 mM MgSO4.7H2O, 2.4 mM NaHCO3, adjusted to pH 8,2 with 1M NaOH), and held at 30° C. Aliquots of sample are withdrawn at selected time-points (1, 3, 5, 10, 15, 30, 45, 60 and 90 minutes). The volume of dissolution media is held constant through the re-addition of aliquots (30° C.) of fresh media to compensate. The aliquots are analysed by a suitable analytical technique (e.g. HPLC) in order to determine the concentration of the hydro-soluble component in the dissolution media.
An aquafeed sample (30 g) was placed in a rotating basket and immersed in 500 ml of artificial seawater (pH 8,2), held at 30° C. 5 ml aliquots of sample were withdrawn at selected time-points (1, 3, 5, 10, 15, 30, 45, 60 and 90 minutes). The volume of dissolution media was held constant (500 ml) through the re-addition of 5 ml aliquots of fresh media (30° C.). These samples were filtered on […], frozen and analysed by HPLC in Advanced Analysis.
Release curves (see FIGS. 1 to 3) show the amount of betaine leached as a percentage of weight of available net betaine (% w/w).

[2] = pure form; water and lower alcohols; cited from earlier work

proportion of available betaine leached over 90 minutes ([1]; pellets with increased betaine content (c. 5 and 10 kg/T, FIGS. 2 and 3), artificial seawater pH 8,2, 30° C., 90 minutes): ≤ 40% | leach profile of pellets (comparison in words) ([1]; shrimp feed pellets c. 2, 5 and 10 kg betaine/T, artificial seawater, 30° C., up to 90 minutes): fastest and most extensive leaching | available betaine dissolved after 90 minutes ([1]; shrimp feed pellets prepared with c. 2 kg betaine/T, artificial seawater pH 8,2, 30° C., 90 minutes, FIG. 1): ≤ 60%
Compound: C[N+](C)(C)CC(=O)[O-] [Betafin BT, trimethylglycine]
solubility (in words) [2]: readily soluble in water and lower alcohols
